One series has as its system E. coli (TOP10). Nature of the series: Antibiotic disc inhibition zone on Mueller-Hinton agar. Type of series: cell-based, Escherichia coli. The note with it: experiment performed twice. Here is the method: Susceptible (ATCC 700720) and MDR (ATCC 700408) strains of S. enterica serovar Typhimurium were obtained from American Type Culture Collection (ATCC Manassas, VA) and cultured in nutrient broth (BD Difco, Detroit, MA). Murine macrophage cell line RAW 264.7 (ATCC TIB-71) was maintained in Dulbecco's modified Eagle's medium (DMEM) (GIBCO, Invitrogen, Carlsbad, CA) supplemented with 10% fetal bovine serum (FBS) (GIBCO) and 1% penicillin-streptomycin (P/S) (GIBCO). Cells were cultured at 37°C in a 5% CO2 atmosphere and used up to passage 10 once received from ATCC. Susceptible and MDR activity of S. Typhimurium was confirmed on Mueller-Hinton agar (BD Difco, Detroit, MA) plates with antibiotic discs (Thermo Fisher Scientific, Waltham, MA) and compared to Escherichia coli (TOP10) and S. Typhimurium XEN-33 (Table 3).

For a further series, the system named is S. Typhimurium (XEN-33). The description is as above. In kind it is cell-based, Salmonella enterica serovar Typhimurium. The note with it: experiment performed twice.
In series [1] the test system is MDR S. Typhimurium (ATCC700408). The description is as above. In kind it is cell-based, Salmonella enterica serovar Typhimurium. The note with it: experiment performed twice. Here is the method: (§1) Susceptible (ATCC 700720) and MDR (ATCC 700408) strains of S. enterica serovar Typhimurium were obtained from American Type Culture Collection (ATCC Manassas, VA) and cultured in nutrient broth (BD Difco, Detroit, MA). Murine macrophage cell line RAW 264.7 (ATCC TIB-71) was maintained in Dulbecco's modified Eagle's medium (DMEM) (GIBCO, Invitrogen, Carlsbad, CA) supplemented with 10% fetal bovine serum (FBS) (GIBCO) and 1% penicillin-streptomycin (P/S) (GIBCO). Cells were cultured at 37°C in a 5% CO2 atmosphere and used up to passage 10 once received from ATCC.

Series [2] concerns Susc. S. Typhimurium (ATCC700720). Described as above. Type of series: cell-based, Salmonella enterica serovar Typhimurium. The note with it: experiment performed twice. Here is the method:
as §1

Series [3] deals with intracellular susceptible S. Typhimurium (ATCC 700720). The experiment in a line: Intracellular gentamicin protection assay, susceptible S. Typhimurium in RAW 264.7 macrophages. Type of series: cell-based, Salmonella enterica serovar Typhimurium. The note with it: for IC50: Salmonella enterica. Here is the method: (§2) RAW 264.7 cells were seeded at 3×10^4 cells/well in a 96-well plate and maintained at 37°C for 20 hours. A single colony of susceptible or MDR S. Typhimurium was inoculated and cultured overnight in nutrient broth and diluted to obtain a log-phase culture stock with an adjusted optical density (OD600) of 0.6, equivalent to a concentration of 3×10^8 CFU/mL (determined by a prior colony forming units (CFU) assay). The bacterial stock solution was resuspended in antibiotic-free DMEM supplemented with 2% FBS and further diluted to obtain a bacterial concentration of 3×10^6 CFU/mL. Cell media was aspirated and replaced with 100 μL of bacteria culture in DMEM resulting in a multiplicity of infection (MOI) of 10. The cells underwent infection for two hours or 30 minutes at 37°C with susceptible or MDR bacteria, respectively. This differential infection incubation period was based on strain-specific infectivity potential. […] Media was aspirated from the wells and replaced with DMEM (2% FBS) containing 100 μg/mL gentamicin for one hour at 37°C to eliminate extracellular bacteria. Following this step, cells were washed once with media and treated for 22 hours with analogs at varying concentrations (0.1 – 5 μM) in DMEM (2% FBS, no pen/strep) containing 10 μg/mL gentamicin to suppress extracellular bacterial growth. AR-12 treated, uninfected, and DMSO-vehicle treated cells were included as controls. Post treatment, cells were washed with PBS and lysed with 0.1% Triton-X100, a concentration sufficient to disrupt host cells while preserving bacterial integrity. The lysates containing intracellular bacteria were serially diluted and enumerated by using drop-plate assay as described previously.([27]) Agar plates were incubated overnight at 37°C before CFU from each dilution were counted.

Series [4] deals with intracellular MDR S. Typhimurium (ATCC 700408). The experiment in a line: Intracellular gentamicin protection assay, MDR S. Typhimurium in RAW 264.7 macrophages. In kind it is cell-based, Salmonella enterica serovar Typhimurium. Here is the method: as §2
Supplemental Figure 2: Evaluating lead compound efficacy against MDR S. Typhimurium. A) Schematic illustrating gentamicin protection assay. Day 0 RAW 264.7 macrophages are seeded into 96-well plate and STM culture is inoculated. Day 1: RAW 264.7 cells are infected with STM at an MOI of 10 for 30 min, washed, then treated with gentamicin for 1hr to remove extracellular bacteria. AR-12 analogs added to infected cells for 22hr incubation. Day 2: RAWs are washed, lysed, diluted and then dropped onto agar plates. Day 3: colony forming units (CFUs) counted. B) Dose effect curves of intracellular MDR S. Typhimurium viability from RAW 264.7 macrophages after 22hr treatment with hit compounds. CFUs normalized to untreated controls. Parental compound AR-12 included for comparison.

Another series is described as follows: in vitro. The note with it: mouse, LC50. Type of series: cell-based. Here is the method: Cell proliferation and viability in the presence of the analogs was tested in the macrophage cell line RAW 264.7 using a 3-(4,5-dimethylthiazol-2-yl)-2,5-diphenyl-2H-tetrazolium bromide (MTT) assay. Cells were seeded at 3×10^4 cells/well in 96 well plates in DMEM (10% FBS, 1% pen/strep). […] DMSO vehicle was utilized as a control, as all the drugs were reconstituted from DMSO stocks. After 24 hr treatment, media was replaced with 100 μL of 0.6 mg/mL MTT solution and the cells were incubated at 37°C until formazan crystals formed. The MTT solution was then replaced with 100 μL of isopropanol, to dissolve the formazan crystals. Cell viability was determined by measuring absorbance at 560 nm of drug treated cells normalized to DMSO vehicle controls. The absorbance at 670 nm was used as a background correction. Cell viability was plotted against increasing drug concentration to obtain the 50% lethal concentration (LC50), defined as the drug concentration resulting in 50% cell viability.

Series [5] has as its system planktonic susceptible S. Typhimurium (ATCC 700720). Nature of the series: Direct effect on planktonic susceptible bacteria (optical density 600 nm). Type of series: cell-based, Salmonella enterica serovar Typhimurium. The note with it: Salmonella enterica. Here is the method:
(§3) A single colony of susceptible or MDR bacteria was inoculated into nutrient broth and incubated overnight at 37°C in an orbital shaker set at 200 rpm. The overnight culture was sub-cultured (1:100) in fresh medium to obtain log-phase bacterial growth after an additional 3 hr incubation at 37°C and further adjusted to obtain a bacterial stock solution with an absorbance value of 0.6 at 600 nm, equivalent to a concentration of 3×10^8 CFU/mL. The bacterial stock was diluted with nutrient broth to obtain 3×10^4 CFU/well in a 96 well plate. Next, 10 μL of each analog were added to yield a total volume of 100 μL /well with a final concentration of 20 μM. Drug-free and bacteria-free wells were used as controls. The plate was incubated at 37°C for 22 hr. Percent bacterial viability was determined using optical density measurements at 600 nm, subtracting out bacteria free absorbance (background) and normalizing to a DMSO vehicle control. Bacterial viability was plotted against increasing drug concentration to obtain the 50% minimum inhibitory concentration (MIC50), defined as the drug concentration resulting in 50% bacterial viability.

Series [6] concerns planktonic MDR S. Typhimurium (ATCC 700408). Nature of the series: Direct effect on planktonic MDR bacteria (optical density 600 nm). In kind it is cell-based, Salmonella enterica serovar Typhimurium. The note with it: Salmonella enterica, Table 2, OD 600 nm. Here is the method:
as §3

Where two headings read alike, the source gives them in different places. Bounds are passed on as bounds.

This note sets out measurements from article doi:10.64898/2025.12.30.696991 (bioRxiv, 2026).

For `CC1(C)S[C@@H]2[C@H](NC(=O)[C@H](N)c3ccccc3)C(=O)N2[C@H]1C(=O)O` [Ampicillin], the “Disc inhibition zone (diameter)” value amounted to 17 mm with E. coli (TOP10), 18 mm with S. Typhimurium (XEN-33), 0 mm in series [1] and 19 mm in [2].

For the compound `CO/N=C(\C(=O)N[C@@H]1C(=O)N2C(C(=O)O)=C(CSc3nc(=O)c(O)nn3C)CS[C@H]12)c1csc(N)n1` [Ceftriaxo], the “Disc inhibition zone (diameter)” value in the series on E. coli (TOP10) was 30 mm; with S. Typhimurium (XEN-33), 26 mm; in series [1] it was 28 mm; in series [2], 26 mm.

Take `O=C(N[C@H](CO)[C@H](O)c1ccc([N+](=O)[O-])cc1)C(Cl)Cl` [Chloramphenicol]: the “Disc inhibition zone (diameter)” value turned out to be 28 mm in the series with E. coli (TOP10), 24 mm with S. Typhimurium (XEN-33), 0 mm in series [1] and 24 mm in series [2].

As for `O=C(O)c1cn(C2CC2)c2cc(N3CCNCC3)c(F)cc2c1=O` [Ciprofloxacin], the “Disc inhibition zone (diameter)” value with E. coli (TOP10) was found to be 37 mm; in the series with S. Typhimurium (XEN-33) it was 25 mm; in [1], 30 mm; in [2], 30 mm.

As to `FC(F)(F)c1cc(C2CCCCC2)n(-c2ccc(NC3CCN(Cc4ccccc4)CC3)cc2)n1` [Compound 381], the IC50 in series [3] (RAW264.7, 22 h, Table 1, concentration at which intracellular susceptible S. Typhimurium burden is 50% in RAW 264.7 macrophages, 22 h treatment, read-out: IC50) came to 110 nM; in [3] (RAW264.7, Table 2, intracellular burden 50% in RAW 264.7, read-out: Susc. IC50), 110 nM; in series [4] (Salmonella enterica, RAW264.7, Table 2, intracellular burden 50% in RAW 264.7), 140 nM. Further, in series [3] (Table 1, LC50 / IC50, susceptible S. Typhimurium), the Selectivity is recorded as 260. Moreover, in [4] (Table 2, LC50 / IC50), the “MDR Selectivity” value was 211. This compound showed a CC50 at 24 h in the series “in vitro” of 28600 nM. The MIC50 in series [5] (Table 1, planktonic susceptible S. Typhimurium viability 50% by optical density, 22 hr, read-out: MIC50) was over 20 µM; in series [5] (Table 2, planktonic Salmonella, OD 600 nm, read-out: Susc. MIC50), over 20 µM; in series [6], over 20 µM.

In the case of `CNC(C)C1CCC(N)C(OC2C(N)CC(N)C(OC3OCC(C)(O)C(NC)C3O)C2O)O1` (centres unmarked) [Gentamicin], the “Disc inhibition zone (diameter)” value with E. coli (TOP10) was 17 mm; in the series with S. Typhimurium (XEN-33), 18 mm; in series [1], 18 mm; in series [2], 17 mm.

`NC[C@H]1O[C@H](O[C@H]2[C@H](O)[C@@H](O[C@H]3O[C@H](CO)[C@@H](O)[C@H](N)[C@H]3O)[C@H](N)C[C@@H]2N)[C@H](O)[C@@H](O)[C@@H]1O` [Kanamycin]: the “Disc inhibition zone (diameter)” value is 20 mm in the series with E. coli (TOP10), 0 mm in the series with S. Typhimurium (XEN-33), 17 mm in series [1] and 17 mm in [2].

As for `C[C@H]1COc2c(N3CCN(C)CC3)c(F)cc3c(=O)c(C(=O)O)cn1c23` [Levofloxacin], the “Disc inhibition zone (diameter)” value with E. coli (TOP10) stood at 34 mm; in the series on S. Typhimurium (XEN-33) it was 27 mm; in series [1], 32 mm; in series [2] it was 32 mm.

Regarding `CCn1cc(C(=O)O)c(=O)c2ccc(C)nc21` [Nalidixic Acid], the “Disc inhibition zone (diameter)” value was found to be 30 mm with E. coli (TOP10), 20 mm in the series with S. Typhimurium (XEN-33), 21 mm in [1] and 21 mm in series [2].

Regarding `[H]/N=C(/N)N[C@H]1[C@H](O)[C@@H](O)[C@H](O[C@@H]2O[C@@H](C)[C@](O)(C=O)[C@H]2O[C@@H]2O[C@@H](CO)[C@H](O)[C@@H](O)[C@@H]2NC)[C@@H](N/C(N)=N\[H])[C@@H]1O` [Streptomycin], the “Disc inhibition zone (diameter)” value with E. coli (TOP10) was found to be 0 mm; with S. Typhimurium (XEN-33) it was 13 mm; in series [1] it was 0 mm; in series [2] it was 12 mm.

Consider `CN(C)[C@@H]1C(O)=C(C(N)=O)C(=O)[C@@]2(O)C(O)=C3C(=O)c4c(O)cccc4[C@@](C)(O)[C@H]3C[C@@H]12` [Tetracycline], for which the “Disc inhibition zone (diameter)” value in the series with E. coli (TOP10) is 24 mm; in the series on S. Typhimurium (XEN-33) it was 0 mm; in [1], 13 mm; in series [2], 22 mm.

With Cotrimoxazole, the “Disc inhibition zone (diameter)” value in the series on E. coli (TOP10) was found to be 29 mm; in the series with S. Typhimurium (XEN-33), 0 mm; in series [1], 24 mm; in series [2], 25 mm.

One may read the IC50 as the midpoint of a concentration-inhibition curve. The CC50 is the concentration giving 50% cytotoxicity. Lower therefore signals harm at low concentration. Usually MIC50 stands for an inhibitory concentration at the 50% level, which refers to growth in some studies and to a panel of isolates in others.
